Measurements taken from patent publication US20060099712A1, “Correlation of anti-cancer activity of dyes with redox potentials” (Eastman Kodak Company, priority 2004, published 2006).

assay: Electrochemical oxidation potential measurement, SHACV / fast scan CV; type: physicochemical; conditions: Table XIX; oxidation potential vs. Ag/AgCl; in V (unit assumed)
Text: If a published reduction potential is not available, suitable techniques for measuring reduction potential are available. Accurate electrochemical oxidation and reduction potentials for these organic dyes can be measured by the techniques of fast scan cyclic voltommetry (CV) or second harmonic ac voltommetry (SHACV). SHACV measurements are made as described by Lenhard in the Journal of Imaging Science volume 30, 1986 pp 27-35 using a commercially available (Princeton Applied Research Corp.) potentiostat in conjunction with voltage programmer, a conventional lock-in amplifier, and a low-distortion oscillator. The SHACV method utilizes an ac voltage waveform (of a frequency greater than or equal to 400 hz) that is superimposed on a DC potential ramp. On the other hand, the measurement of the oxidation or reduction potential by the CV method utilizes a (high frequency) triangular voltage waveform. The general procedures for measuring potentials by this method have been described by Wightman in Analytical Chemistry, 1984, vol. 56, pp524 and Journal of Physical Chemistry, 1984, vol. 88, pp3915. The specific application of this technique to the measurement of cyanine dye potentials has been reported by Nomura and Okazaki, Chemistry Letters, 1990, pp2231-2234. Commercial instrumentation especially designed for fast scan (i.e., high frequency) CV is available. It is noteworthy that because of the complicated nature of many of the cyanine dyes, electrochemical reactions, conventional slow scan cyclic voltommetry or polarography methods (as described by R. Large in Photographic Sensitivity, R. Cox, ed., Academic Press, New York, 1973, pp 241-263) provide only approximate values for oxidation and reduction potentials. Errors as large as 0.4 V from the true potential can be obtained by using slow scan CV or electrochemical methods.
The procedure for measuring the oxidation or reduction potential by the SHACV or fast scan CV method utilizes solutions of acetonitrile (or similar nonaqueous solvent) with added tetrabutylammonium tetrafluoroborate TBABF4 at a concentration of 0.1 M and ca. 5×10^−4 M of the cyanine, oxonol, or merocyanine dye. For measurement of the reduction potential the solution must be deaerated with argon prior to examination. The preferred working electrode is a Pt disk (ca. 0.02 cm^2) that is polished with 1 μm diamond paste, rinsed with water, and dried before each experiment. The reference electrode is a NaCl saturated calomel electrode. The cell and reference electrodes are maintained at 22 C. A value of 40 mV is added to the measured potentials to convert the number to that corresponding to an Ag/AgCl reference electrode. If a solvent other than acetonitrile is used then the measured potential must be referenced to a standard organic redox system such as ferrocene and corrected accordingly.
The procedure for measuring the oxidation or reduction potential by the SHACV method utilizes solutions of acetonitrile (or similar nonaqueous solvent) with added tetrabutylammonium tetrafluoroborate TBABF4 at a concentration of 0.1 M and ca. 5×10^−4 M of the cyanine, oxonol, or merocyanine dye. […] A value of 40 mV is added to the measured potentials to convert the number to that corresponding to an Ag/AgCl reference electrode. If a solvent other than acetonitrile is used then the measured potential must be referenced to a standard organic redox system such as ferrocene and corrected accordingly.

Point of comparison: `CCN1C(=CC=Cc2sc3cc4ccccc4nc3[n+]2CC)Sc2cc3ccccc3nc21` [Dye D-150], Eox 1.145. Against it:
- CCN1/C(=C\C=C\C2=[N+](CC)c3ccccc3C2(C)C)C(C)(C)c2ccccc21 [Dye D-103] — lower, 1.088
- CCN1/C(=C/C=C/c2sc3cc4ccccc4cc3[n+]2CC)Sc2cc3ccccc3cc21 [Dye D-109] — lower, 1.015
- CCN1/C(=C/C=C/c2sc3cc4ccccc4cc3[n+]2CC)Sc2cc3ccccc3cc21 [Dye D-160] — lower, 1.015
- CCN1/C(=C/C=C/c2sc3ccccc3[n+]2CC)Sc2ccccc21.[I-] [Dye D-101] — lower, 0.902
